Laboratory results taken from ChEMBL document CHEMBL3046808, “Novel 2-(E)-substituted benzylidene-6-(N-substituted aminomethyl)cyclohexanones and cyclohexanols as analgesic and anti-inflammatory agents” (2013).

Tests used:
Assay type in all cases: functional
Mus musculus [1] = assay: Analgesic activity in Kunming Mus musculus (mouse) assessed as increase in pain threshold at 200 mg/kg, po after 1 hr by hot plate method (reference value: 4.2%)
Rattus norvegicus = assay: Anti-inflammatory activity in Wistar Rattus norvegicus (rat) assessed as inhibition of carrageenan-induced paw edema at 200 mg/kg, po administered 1 hr prior to carrageenan-challenge measured after 3 hr relative to untreated control
Mus musculus [2] = assay: Analgesic activity in Kunming Mus musculus (mouse) assessed as inhibition of acetic acid-induced writhing at 200 mg/kg, po administered 1 hr prior to acetic acid challenge measured for 15 min relative to untreated control
Mus musculus [3] = assay: Anti-inflammatory activity in Kunming Mus musculus (mouse) assessed as inhibition of xylene-induced ear swelling at 200 mg/kg, po administered 1 hr prior to xylene challenge measured after 30 min relative to untreated control

| Compound | Activity (Mus musculus [1]) | inhibition in vivo at 200 mg/kg (Rattus norvegicus) | inhibition in vivo at 200 mg/kg (Mus musculus [2]) | inhibition in vivo at 200 mg/kg (Mus musculus [3]) |
| --- | --- | --- | --- | --- |
| Cc1cccc(N(C)CC2CCC/C(=C\c3ccc(S(C)(=O)=O)cc3)C2=O)c1 (configuration not stated) | 109.98% | 36.2% | 72.8% | 36.7% |
| Cc1ccc(NCC2CCC/C(=C\c3ccccc3)C2=O)cc1 (configuration not stated) | 166.19% | 72.3% | 82.8% | 56.4% |
| CN(CC1CCC/C(=C\c2ccccc2)C1=O)c1ccccc1 (configuration not stated) | 109.59% | 76.6% | 69.7% | 49.7% |
| Cc1ccc(N(C)CC2CCC/C(=C\c3ccccc3)C2=O)cc1 (configuration not stated) | 146.12% | 25.5% | 81% | 18.2% |
| Cc1cccc(N(C)CC2CCC/C(=C\c3ccccc3)C2=O)c1 (configuration not stated) | 108.45% | 46.8% | 76.7% | 44.9% |
| Cc1ccc(/C=C2\CCCC(CN(C)c3ccccc3)C2=O)cc1 (configuration not stated) | 79.04% | 44.7% | 68.2% | 39.5% |
| Cc1ccc(/C=C2\CCCC(CN(C)c3ccc(C)cc3)C2=O)cc1 (configuration not stated) | 71.6% | 38.3% | 76.5% | 27.6% |
| Cc1ccc(/C=C2\CCCC(CN(C)c3cccc(C)c3)C2=O)cc1 (configuration not stated) | 75.5% | 36.2% | 75.8% | 35.4% |
| CN(CC1CCC/C(=C\c2ccc(S(C)(=O)=O)cc2)C1=O)c1ccccc1 (configuration not stated) | 142.7% | 51.1% | 81% | 46.9% |
| Cc1ccc(N(C)CC2CCC/C(=C\c3ccc(S(C)(=O)=O)cc3)C2=O)cc1 (configuration not stated) | 155.12% | 31.9% | 84.5% | 27% |
| Cc1ccc(N(C)CC2CCC/C(=C\c3ccccc3)C2(O)c2ccccc2)cc1 (racemic) | 70.08% | 59.6% | 64.2% | 66.7% |
| Cc1cccc(N(C)CC2CCC/C(=C\c3ccccc3)C2(O)c2ccccc2)c1 (racemic) | 83.22% | 36.2% | 70.6% | 23.1% |
| COc1cccc(C2(O)/C(=C/c3ccccc3)CCCC2CN(C)c2ccccc2)c1 (racemic) | 162.71% | 38.3% | 82.2% | 34.7% |
| COc1cccc(C2(O)/C(=C/c3ccccc3)CCCC2CN(C)c2ccc(C)cc2)c1 (racemic) | 110.54% | 57.5% | 77.8% | 41.5% |
| COc1cccc(C2(O)/C(=C/c3ccccc3)CCCC2CN(C)c2cccc(C)c2)c1 (racemic) | 116.52% | 44.7% | 79.9% | 36% |
| COc1ccc(C2(O)/C(=C/c3ccccc3)CCCC2CN(C)c2ccccc2)cc1 (racemic) | 121.45% | 38.3% | 75.7% | 26.5% |
| COc1ccc(C2(O)/C(=C/c3ccccc3)CCCC2CN(C)c2ccc(C)cc2)cc1 (racemic) | 117.46% | 21.3% | 78.7% | 26.5% |
| COc1cccc(C2(C)/C(=C/c3ccc(C)cc3)CCCC2CN(C)c2ccccc2)c1 (racemic) | 153.01% | 25.5% | 80.9% | 18% |
| COc1cccc(C2(O)/C(=C/c3ccc(C)cc3)CCCC2CN(C)c2ccc(C)cc2)c1 (racemic) | 125.34% | 21.3% | 81.6% | 22.9% |
| COc1ccc(C2(O)/C(=C/c3ccc(C)cc3)CCCC2CN(C)c2ccccc2)cc1 (racemic) | 106.84% | 17% | 72.1% | 16.3% |
| COc1ccc(C2(O)/C(=C/c3ccc(C)cc3)CCCC2CN(C)c2ccc(C)cc2)cc1 (racemic) | 93.41% | 29.8% | 62.2% | 29.9% |
| COc1ccc(C2(O)/C(=C/c3ccc(C)cc3)CCCC2CN(C)c2cccc(C)c2)cc1 (racemic) | 93.52% | 29.8% | 74.2% | 24.5% |
| CC(C)Cc1ccc(C(C)C(=O)O)cc1 (configuration not stated) [IBUPROFEN] | 158.56% | 53.2% | 84.1% | 40.1% |
